In PubChem BioAssay AID1963853 (Molecular Pharmacology Branch, DTP, NCI, 2024):
Several values for one entry are separate records, joined by “and”; a condition that tells them apart may be missing. Identical values can stand only once.

Test system: 266295-075-R-J1-PDC spheroid viability
Test: Anticancer human tumor 266295-075-R-J1-PDC patient-derived head and neck squamous carcinoma cell line growth inhibition [POLQ]
Conditions: spheroids with HUVEC and MSC; for viability, T/C: stronger effect = lower value
Description: Multicellular complex tumor spheroid response to Polymerase (POL) inhibitors (novobiocin, ART-558, RP6685) in combination with a variety of drugs and investigational agents in selected tumor cell lines
The POL inhibitors (novobiocin, ART-558, and RP6685) were evaluated both individually and in combination with standard of care and investigational anticancer small molecules within a complex spheroid model of solid tumors. . Complex spheroids include a stromal component modeled by human endothelial cells (HUVEC) and fibroblasts modeled by human mesenchymal stem cells (MSCs). The concentration ranges selected for each drug and investigational agent were based upon clinically achievable concentrations if the clinical Cmax of the agent was known.
Compounds. The drugs and investigational agents: novobiocin (NSC847541), ART-558 (NSC835418), RP-6685 (NSC848927), peposertib (NSC802822), ceralasertib (NSC780249), elimusertib (NSC800525), camonsertib (NSC841442), AZD-1390 (NSC803789), olaparib (NSC753686), talazoparib (NSC767125), rucaparib (NSC756644), sotorasib (NSC818433), MRTX-1133 (NSC836407), SN-38 (NSC673596), topotecan (NSC609699), epotoside (NSC141540), doxorubicin (NSC123127), gemcitabine (NSC613327), 5-fluorouracil (NSC19893), paclitaxel (NSC125973), vemurafenib (NSC761431), MSA-2 (NSC828583), SN-011 (NSC837082), adavosertib (NSC754352), prexasertib (NSC758257), carboplatin (NSC241240) and oxaliplatin (NSC266046), were obtained from the National Cancer Institute (NCI) Developmental Therapeutics Program Chemical Repository (21). The FDA-approved anticancer drug set is available from the Developmental Therapeutics Program at https://dtp.cancer.gov/organization/dscb/obtaining/. […] The stock solutions were prepared in dimethyl sulfoxide (DMSO, Sigma-Aldrich, St. Louis, MO, cat. D2650), except for the platinum compounds which were prepared in saline (Quality Biological, Gaithersburg, MD, cat. 114-055-101), at 800-fold the tested concentration and stored at -70 degrees C prior to their use. All drugs and investigational agents were tested over a range starting from a high concentration at or near the clinical Cmax and decreasing in half-log increments. If the clinical Cmax for an agent had not been determined, the highest concentration tested was 10 microM, except for SN-38, which was tested at a high concentration of 1 microM.
Cell Culture. All cells were maintained in an incubator at 37 degrees C and 5% CO2 with 95% humidity. The PDC lines were cultured according to standard operating procedures established by the NCI PDMR (https://pdmr.cancer.gov). Table 3 of the manuscript, lists the cell lines along with the number of the three cell types plated to form the mct-spheroids and media for tumor cell growth. After thawing, all PDC lines, except 997537-175-T-J1-PDC and 415267-285-R-J2-PDC, were cultured in Matrigel-coated flasks prepared with a working solution of 1X Ham's F-12 nutrient mix, without supplementation (Thermo Fisher Scientific, cat. 11765054), 100 U/mL penicillin-streptomycin (Thermo Fisher Scientific, cat. 15140122), and 2.5% Matrigel (Corning Inc., Corning, NY, cat. 354248) for the first three passages. The two PDC lines 997537-175-T-J1-PDC and 415267-285-R-J2-PDC were cultured on uncoated flasks. The 857933-349-R-J2-PDC line was cultured in 6C/Colon 1B media containing advanced DMEM/F-12 (Thermo Fisher Scientific, cat. 12634028), 10 mM HEPES (Thermo Fisher Scientific, cat. 15630080), 1X GlutaMAX supplement (Thermo Fisher Scientific, cat. 35050061), 0.1 mg/mL primocin (InvivoGen, San Diego, CA, cat. ant-pm-2), 10% defined fetal bovine serum, heat inactivated (HyClone Laboratories Inc., Logan, UT, cat. SH30070.03HI), 50% L-WRN conditioned media (ATCC, cat. CRL-3276), 1.25 mM N-Acetyl-L-cysteine (Sigma-Aldrich, cat. A9165), 10 mM nicotinamide (Sigma-Aldrich, cat. N0636), 1X B-27 supplement (Thermo Fisher Scientific, cat. 17504044), 1X N-2 supplement (Thermo Fisher Scientific, cat. […]
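Further: spheroids exposed to compounds for seven days before readout.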

In the case of `CC(=O)O[C@H]1C(=O)[C@@]2(C)[C@H]([C@H](OC(=O)c3ccccc3)[C@]3(O)C[C@H](OC(=O)[C@H](O)[C@@H](NC(=O)c4ccccc4)c4ccccc4)C(C)=C1C3(C)C)[C@]1(OC(C)=O)CO[C@@H]1C[C@@H]2O` + Cc1cccc(N(C)C(=O)C2C(O)CCN2c2nc(C)cc(C(F)(F)F)c2C#N)c1, the IC50 (curve of first compound, second compound 0.0316 µM) is reported as > 3 µM, the IC50 (curve of first compound, second compound 0.1 µM) is reported as > 3 µM and the IC50 (curve of first compound, second compound 0.316 µM) is reported as > 3 µM. For the same molecule, the IC50 (curve of first compound, second compound 1 µM) was > 3 µM, the IC50 (curve of first compound, second compound 3.16 µM) was > 3 µM and the IC50 (curve of first compound, second compound 10 µM) was > 3 µM. It also gave a viability, T/C (second compound 0.0316 µM, first compound 0.00949 µM) of 71.9%, a viability, T/C (second compound 0.0316 µM, first compound 0.03 µM) of 58.7% and a viability, T/C (second compound 0.0316 µM, first compound 0.0949 µM) of 62.5%. It also gave a viability, T/C (second compound 0.0316 µM, first compound 0.3 µM) of 80.5%, a viability, T/C (second compound 0.0316 µM, first compound 0.949 µM) of 78.7% and a viability, T/C (second compound 0.0316 µM, first compound 3 µM) of 60%. It also gave a viability, T/C (second compound 0.1 µM, first compound 0.00949 µM) of 71.7%, a viability, T/C (second compound 0.1 µM, first compound 0.03 µM) of 71% and a viability, T/C (second compound 0.1 µM, first compound 0.0949 µM) of 56.9%. For the same molecule, the viability, T/C (second compound 0.1 µM, first compound 0.3 µM) was 74.7%, the viability, T/C (second compound 0.1 µM, first compound 0.949 µM) was 83.8% and the viability, T/C (second compound 0.1 µM, first compound 3 µM) was 51.8%. For the same molecule, the viability, T/C (second compound 0.316 µM, first compound 0.00949 µM) was 100%, the viability, T/C (second compound 0.316 µM, first compound 0.03 µM) was 65.9% and the viability, T/C (second compound 0.316 µM, first compound 0.0949 µM) was 64%. For the same molecule, the viability, T/C (second compound 0.316 µM, first compound 0.3 µM) was 69.2%, the viability, T/C (second compound 0.316 µM, first compound 0.949 µM) was 71% and the viability, T/C (second compound 0.316 µM, first compound 3 µM) was 55.4%. For the same molecule, the viability, T/C (second compound 1 µM, first compound 0.00949 µM) was 70.8%, the viability, T/C (second compound 1 µM, first compound 0.03 µM) was 56.4% and the viability, T/C (second compound 1 µM, first compound 0.0949 µM) was 79.4%. The viability, T/C (second compound 1 µM, first compound 0.3 µM) was 68%, the viability, T/C (second compound 1 µM, first compound 0.949 µM) was 78.2% and the viability, T/C (second compound 1 µM, first compound 3 µM) was 62.7%. It also gave a viability, T/C (second compound 3.16 µM, first compound 0.00949 µM) of 93%, a viability, T/C (second compound 3.16 µM, first compound 0.03 µM) of 60.2% and a viability, T/C (second compound 3.16 µM, first compound 0.0949 µM) of 73.1%. For the same molecule, the viability, T/C (second compound 3.16 µM, first compound 0.3 µM) was 69.1%, the viability, T/C (second compound 3.16 µM, first compound 0.949 µM) was 81.5% and the viability, T/C (second compound 3.16 µM, first compound 3 µM) was 61.9%. For the same molecule, the viability, T/C (second compound 10 µM, first compound 0.00949 µM) was 83.8%, the viability, T/C (second compound 10 µM, first compound 0.03 µM) was 52.4% and the viability, T/C (second compound 10 µM, first compound 0.0949 µM) was 60.9%. The viability, T/C (second compound 10 µM, first compound 0.3 µM) was 68.1%, the viability, T/C (second compound 10 µM, first compound 0.949 µM) was 72.4% and the viability, T/C (second compound 10 µM, first compound 3 µM) was 62.8%.
In the case of `Cn1ncnc1[C@H]1c2n[nH]c(=O)c3cc(F)cc(c23)N[C@@H]1c1ccc(F)cc1`, the viability, T/C (compound 0.000316 µM) is reported as 103% and 112% and 99.9%, the viability, T/C (compound 0.001 µM) is reported as 100% and 92.9% and 88.8% and the viability, T/C (compound 0.00316 µM) is reported as 87.1% and 103% and 107%. The viability, T/C (compound 0.01 µM) was 102% (2×) and 92.9%, the viability, T/C (compound 0.0316 µM) was 104% and 112% and 89% and the viability, T/C (compound 0.1 µM) was 118% and 101% and 105%. For the same molecule, the IC50 (curve of compound) was > 0.1 µM.
In the case of `CC1COCCN1c1cc(C2(S(C)(=N)=O)CC2)nc(-c2ccnc3[nH]ccc23)n1` (stereo unspecified), the viability, T/C (compound 0.0316 µM) is reported as 92.3% and 97.5% and 86.5%, the viability, T/C (compound 0.1 µM) is reported as 95.2% and 93.2% and 93.5% and the viability, T/C (compound 0.316 µM) is reported as 89.9% and 85.6% and 97.6%. The viability, T/C (compound 1 µM) was 83.2% and 80% and 78.7%, the viability, T/C (compound 3.16 µM) was 73.2% and 87.5% and 76.5% and the viability, T/C (compound 10 µM) was 55.6% and 56% and 54.7%. For the same molecule, the IC50 (curve of compound) was > 10 µM.
In the case of `CC1COCCN1c1cc(C2(O)CC3CCC(C2)O3)c2cnn(-c3ccn[nH]3)c2n1` (stereo unspecified), the viability, T/C (compound 0.0316 µM) is reported as 74.1% and 100% and 73.6%, the viability, T/C (compound 0.1 µM) is reported as 84.5% and 71.6% and 81% and the viability, T/C (compound 0.316 µM) is reported as 62.8% and 65.5% and 67.8%. The viability, T/C (compound 1 µM) was 43.3% and 50.5% and 46.8%, the viability, T/C (compound 3.16 µM) was 40.4% and 43.8% and 42.7% and the viability, T/C (compound 10 µM) was 27.9% and 29.2% and 30.2%. For the same molecule, the IC50 (curve of compound) was 0.708 µM and 0.992 µM and 0.944 µM.
`CCc1c2c(nc3ccc(O)cc13)-c1cc3c(c(=O)n1C2)COC(=O)[C@]3(O)CC` was tested, and the viability, T/C (compound 0.00316 µM) was 84.2% and 91.3% and 93.2%, the viability, T/C (compound 0.01 µM) was 77.4% and 78.1% and 89.5% and the viability, T/C (compound 0.0316 µM) was 71.7% and 92.1% and 88.6%. The viability, T/C (compound 0.1 µM) was 87% (2×) and 97.7%, the viability, T/C (compound 0.316 µM) was 95.2% and 104% and 109% and the viability, T/C (compound 1 µM) was 71.8% (2×) and 91.9%. For the same molecule, the IC50 (curve of compound) was > 1 µM.
With `C#Cc1c(F)ccc2cc(O)cc(-c3ncc4c(N5CC6CCC(C5)N6)nc(OCC56CCCN5CC(F)C6)nc4c3F)c12` (stereo unspecified) the viability, T/C (compound 0.0316 µM) was 88.8% and 94.8% and 100%, the viability, T/C (compound 0.1 µM) was 93.5% and 94.2% and 79.7% and the viability, T/C (compound 0.316 µM) was 81.2% and 69.6% and 68.8%. The viability, T/C (compound 1 µM) was 76.1% and 83.5% and 63.2%, the viability, T/C (compound 3.16 µM) was 66% and 76.4% and 54.8% and the viability, T/C (compound 10 µM) was 61.1% and 56.7% and 58%. The IC50 (curve of compound) was > 10 µM.
For `CCc1cc2c(N3CCc4c(cc(Cn5ccnc5)cc4-c4cn(C)nc4C(F)(F)F)C3=O)ccnc2c(OC)n1`, the viability, T/C (compound 0.0316 µM) was 90% and 97.3% and 94%, the viability, T/C (compound 0.1 µM) was 86.8% and 96.2% and 103% and the viability, T/C (compound 0.316 µM) was 93.4% and 103% and 122%. The viability, T/C (compound 1 µM) was 106% (2×) and 117%, the viability, T/C (compound 3.16 µM) was 125% and 145% and 137% and the viability, T/C (compound 10 µM) was 126% and 117% and 140%. The IC50 (curve of compound) was > 10 µM.
For `C=CC(=O)N1CCN(c2nc(=O)n(-c3c(C)ccnc3C(C)C)c3nc(-c4c(O)cccc4F)c(F)cc23)C(C)C1` (stereo unspecified), the viability, T/C (compound 0.0316 µM) was 85.8% and 77.5% and 104%, the viability, T/C (compound 0.1 µM) was 98.6% and 98% and 100% and the viability, T/C (compound 0.316 µM) was 100% and 98.1% and 101%. For the same molecule, the viability, T/C (compound 1 µM) was 104% and 95.8% and 112%, the viability, T/C (compound 3.16 µM) was 120% and 102% and 128% and the viability, T/C (compound 10 µM) was 110% and 129% and 93.2%. The IC50 (curve of compound) was > 10 µM.
